{"source": "patent US8148388B2", "about": "“2,4 (4,6) pyrimidine derivatives” (Janssen Pharmaceutica, N.V., priority 2004, dated 2012)", "key": {"[1]": {"conditions": "from N#Cc1cnc(Nc2cccc(OCCN)c2)nc1Nc1cccc(C(=O)O)c1; amide bond; HBTU; DMF; 4.0 mM; 25.0 °C; 17.0 h"}, "[2]": {"target": "CSK (h) (Homo sapiens, UniProt P41240)", "sequence (P41240 whole entry)": "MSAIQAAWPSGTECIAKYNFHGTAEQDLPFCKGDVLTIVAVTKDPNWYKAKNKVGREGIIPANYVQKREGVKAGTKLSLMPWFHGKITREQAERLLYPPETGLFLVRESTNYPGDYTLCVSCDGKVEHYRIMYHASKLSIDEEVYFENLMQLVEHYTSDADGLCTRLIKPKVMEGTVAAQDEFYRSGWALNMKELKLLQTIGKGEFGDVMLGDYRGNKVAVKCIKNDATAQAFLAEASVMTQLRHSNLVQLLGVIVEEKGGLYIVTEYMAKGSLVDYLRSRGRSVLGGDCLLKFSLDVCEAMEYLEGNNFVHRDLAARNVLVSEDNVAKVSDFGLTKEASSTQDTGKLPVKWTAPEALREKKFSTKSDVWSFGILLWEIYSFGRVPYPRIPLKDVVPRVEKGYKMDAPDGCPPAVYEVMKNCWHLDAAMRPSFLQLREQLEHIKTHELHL", "experiment": "CSK human kinase assay (glass-fiber filter)", "format": "biochemical", "conditions": "test concentration of 10^−6M; read-out: C2 score (inhibition of CSK human)", "procedure,_shortened": "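Radiometric filter-binding assay: human CSK (5-10 mU) with 0.1 mg/ml poly(Glu, Tyr) 4:1 and [γ-33P]-ATP (concentration as required) in 50 mM Tris pH 7.5, 10 mM MnCl2, 10 mM MgAcetate. Incubated 40 minutes at room temperature, stopped with phosphoric acid; substrate-bound 33P counted.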"}, "[3]": {"target": "cSRC (h) (Homo sapiens, UniProt P12931)", "sequence (P12931 whole entry)": "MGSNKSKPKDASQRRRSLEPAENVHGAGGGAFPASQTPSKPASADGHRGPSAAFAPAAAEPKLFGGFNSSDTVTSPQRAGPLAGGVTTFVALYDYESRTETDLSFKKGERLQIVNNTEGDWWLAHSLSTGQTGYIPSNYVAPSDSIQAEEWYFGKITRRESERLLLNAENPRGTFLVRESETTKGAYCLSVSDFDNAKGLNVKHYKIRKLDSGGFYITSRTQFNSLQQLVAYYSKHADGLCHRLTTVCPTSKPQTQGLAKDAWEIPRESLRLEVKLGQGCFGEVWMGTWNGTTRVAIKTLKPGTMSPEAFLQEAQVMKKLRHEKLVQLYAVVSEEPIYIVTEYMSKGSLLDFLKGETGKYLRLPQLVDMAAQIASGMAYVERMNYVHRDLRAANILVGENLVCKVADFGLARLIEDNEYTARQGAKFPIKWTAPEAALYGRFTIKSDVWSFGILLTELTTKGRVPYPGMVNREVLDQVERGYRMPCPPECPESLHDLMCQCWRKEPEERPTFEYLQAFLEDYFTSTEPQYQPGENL", "experiment": "cSRC human kinase assay (glass-fiber filter)", "format": "biochemical", "conditions": "test concentration of 10^−6M; read-out: C3 score (inhibition of cSRC human)", "procedure,_shortened": "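Radiometric assay: kinase and substrate are incubated with [33P]ATP, with the reaction started by MgATP mix. The reaction is spotted on P30 filtermat, washed in 75 mM phosphoric acid and methanol, and the bound 33P is measured by scintillation counting.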"}, "[4]": {"target": "Fes (h) (Homo sapiens, UniProt P07332)", "sequence (P07332 whole entry)": "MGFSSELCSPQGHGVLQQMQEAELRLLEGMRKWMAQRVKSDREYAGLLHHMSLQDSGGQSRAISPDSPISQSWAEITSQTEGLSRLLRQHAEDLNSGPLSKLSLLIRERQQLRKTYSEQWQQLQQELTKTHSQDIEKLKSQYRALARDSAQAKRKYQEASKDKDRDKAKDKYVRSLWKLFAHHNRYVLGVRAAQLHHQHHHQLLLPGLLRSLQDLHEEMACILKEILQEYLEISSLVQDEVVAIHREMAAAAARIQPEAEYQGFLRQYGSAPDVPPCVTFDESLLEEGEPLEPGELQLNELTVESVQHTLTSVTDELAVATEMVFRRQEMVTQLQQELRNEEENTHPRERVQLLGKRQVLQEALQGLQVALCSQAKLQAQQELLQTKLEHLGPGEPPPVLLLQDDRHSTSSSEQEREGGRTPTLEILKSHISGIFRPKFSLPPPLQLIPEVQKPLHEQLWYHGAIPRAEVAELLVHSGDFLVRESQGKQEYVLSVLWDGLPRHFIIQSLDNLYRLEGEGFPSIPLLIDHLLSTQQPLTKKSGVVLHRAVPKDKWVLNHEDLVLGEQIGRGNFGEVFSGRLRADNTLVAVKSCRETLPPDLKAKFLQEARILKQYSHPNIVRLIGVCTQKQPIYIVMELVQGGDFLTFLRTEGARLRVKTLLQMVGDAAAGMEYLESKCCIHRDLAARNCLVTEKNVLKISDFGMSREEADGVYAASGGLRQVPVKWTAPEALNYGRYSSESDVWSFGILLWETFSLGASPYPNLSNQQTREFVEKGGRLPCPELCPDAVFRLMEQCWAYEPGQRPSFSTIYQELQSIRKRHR", "experiment": "Fes human kinase assay (glass-fiber filter)", "format": "biochemical", "conditions": "test concentration of 10^−6M; read-out: C4 score (inhibition of Fes human)", "procedure,_shortened": "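Human Fes (5–10 mU) was incubated with 0.1 mg/ml poly(Glu,Tyr) 4:1 in 8 mM MOPS pH 7.0, 0.2 mM EDTA, 10 mM Mg acetate and [γ-33P]ATP for 40 min at room temperature. The reaction was stopped with phosphoric acid, and substrate phosphorylation was quantified by filter binding and scintillation counting.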"}, "[5]": {"target": "Flt3 (h) (Homo sapiens, UniProt P36888)", "sequence (P36888 27-993)": "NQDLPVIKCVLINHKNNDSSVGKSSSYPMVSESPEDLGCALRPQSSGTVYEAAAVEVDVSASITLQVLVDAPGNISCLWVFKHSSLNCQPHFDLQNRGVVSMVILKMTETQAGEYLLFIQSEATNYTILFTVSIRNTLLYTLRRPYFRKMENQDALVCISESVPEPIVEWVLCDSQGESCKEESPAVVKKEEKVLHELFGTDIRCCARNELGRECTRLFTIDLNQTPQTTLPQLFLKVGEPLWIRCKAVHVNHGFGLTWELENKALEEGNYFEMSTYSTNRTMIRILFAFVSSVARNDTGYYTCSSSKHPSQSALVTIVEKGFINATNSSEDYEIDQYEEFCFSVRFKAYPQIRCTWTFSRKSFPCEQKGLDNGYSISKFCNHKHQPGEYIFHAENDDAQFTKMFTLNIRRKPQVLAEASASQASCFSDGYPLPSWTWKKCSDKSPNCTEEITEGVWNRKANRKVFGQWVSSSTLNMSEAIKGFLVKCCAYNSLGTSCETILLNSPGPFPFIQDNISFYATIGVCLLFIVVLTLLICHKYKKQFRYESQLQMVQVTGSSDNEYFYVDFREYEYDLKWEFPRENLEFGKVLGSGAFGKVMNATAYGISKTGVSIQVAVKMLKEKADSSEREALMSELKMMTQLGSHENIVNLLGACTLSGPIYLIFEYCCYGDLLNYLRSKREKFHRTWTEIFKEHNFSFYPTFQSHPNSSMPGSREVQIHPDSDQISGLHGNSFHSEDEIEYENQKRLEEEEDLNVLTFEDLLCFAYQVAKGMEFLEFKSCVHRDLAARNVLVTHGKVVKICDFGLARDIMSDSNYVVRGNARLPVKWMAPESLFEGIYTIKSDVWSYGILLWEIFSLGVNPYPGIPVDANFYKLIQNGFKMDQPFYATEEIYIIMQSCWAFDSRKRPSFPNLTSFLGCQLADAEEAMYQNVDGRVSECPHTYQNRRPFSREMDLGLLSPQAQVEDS", "experiment": "Flt3 human kinase assay (glass-fiber filter)", "format": "biochemical", "conditions": "test concentration of 10^−6M; read-out: C6 score (inhibition of Flt3 human)", "procedure,_shortened": "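Human Flt3 (5-10 mU) with 50 μM peptide substrate in 8 mM MOPS pH 7.0, 0.2 mM EDTA, 10 mM Mg acetate and [γ-33P]ATP (concentration as required), 40 min at room temperature. Reaction stopped with phosphoric acid; substrate 33P incorporation counted on P30 glass-fiber filter.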"}, "[6]": {"target": "Fms (h) (Homo sapiens, UniProt P07333)", "sequence (P07333 20-972)": "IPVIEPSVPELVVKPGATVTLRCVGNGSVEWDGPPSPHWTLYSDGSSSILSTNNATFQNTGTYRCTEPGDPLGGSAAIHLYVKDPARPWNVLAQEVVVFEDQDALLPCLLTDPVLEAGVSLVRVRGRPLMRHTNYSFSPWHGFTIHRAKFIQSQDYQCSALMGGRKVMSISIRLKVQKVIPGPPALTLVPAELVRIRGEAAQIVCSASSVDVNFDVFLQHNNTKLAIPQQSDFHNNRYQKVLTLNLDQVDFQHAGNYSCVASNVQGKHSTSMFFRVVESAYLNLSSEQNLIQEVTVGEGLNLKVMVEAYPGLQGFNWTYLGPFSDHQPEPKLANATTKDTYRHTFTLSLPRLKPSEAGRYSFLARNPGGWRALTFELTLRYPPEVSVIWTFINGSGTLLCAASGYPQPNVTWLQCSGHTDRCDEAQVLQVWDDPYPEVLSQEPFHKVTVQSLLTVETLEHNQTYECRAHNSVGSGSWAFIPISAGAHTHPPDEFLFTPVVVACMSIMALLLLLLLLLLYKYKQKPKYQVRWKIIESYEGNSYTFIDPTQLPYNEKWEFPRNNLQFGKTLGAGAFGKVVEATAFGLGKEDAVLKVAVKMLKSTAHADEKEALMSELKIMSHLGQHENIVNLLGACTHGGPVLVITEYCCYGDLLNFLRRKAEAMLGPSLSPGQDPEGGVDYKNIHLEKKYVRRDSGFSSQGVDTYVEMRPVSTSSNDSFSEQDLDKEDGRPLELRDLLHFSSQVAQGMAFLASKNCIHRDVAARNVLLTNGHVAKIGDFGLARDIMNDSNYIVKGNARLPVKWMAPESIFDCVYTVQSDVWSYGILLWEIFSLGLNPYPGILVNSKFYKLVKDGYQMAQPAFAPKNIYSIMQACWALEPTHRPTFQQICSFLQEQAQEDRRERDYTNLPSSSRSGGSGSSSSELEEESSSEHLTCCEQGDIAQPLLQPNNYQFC", "experiment": "Fms human kinase assay (glass-fiber filter)", "format": "biochemical", "conditions": "test concentration of 10^−6M; read-out: C7 score (inhibition of Fms human)", "procedure,_shortened": "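Radiometric filter-binding assay: Fms (5-10 mU) with 250 μM peptide substrate and [γ-33P]ATP in 8 mM MOPS pH 7.0, 10 mM Mg acetate, 40 min at room temperature. Reaction stopped with phosphoric acid; substrate-bound 33P counted on P30 filtermat.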"}, "[7]": {"target": "Lck (h) (Homo sapiens, UniProt P06239)", "sequence (P06239 whole entry)": "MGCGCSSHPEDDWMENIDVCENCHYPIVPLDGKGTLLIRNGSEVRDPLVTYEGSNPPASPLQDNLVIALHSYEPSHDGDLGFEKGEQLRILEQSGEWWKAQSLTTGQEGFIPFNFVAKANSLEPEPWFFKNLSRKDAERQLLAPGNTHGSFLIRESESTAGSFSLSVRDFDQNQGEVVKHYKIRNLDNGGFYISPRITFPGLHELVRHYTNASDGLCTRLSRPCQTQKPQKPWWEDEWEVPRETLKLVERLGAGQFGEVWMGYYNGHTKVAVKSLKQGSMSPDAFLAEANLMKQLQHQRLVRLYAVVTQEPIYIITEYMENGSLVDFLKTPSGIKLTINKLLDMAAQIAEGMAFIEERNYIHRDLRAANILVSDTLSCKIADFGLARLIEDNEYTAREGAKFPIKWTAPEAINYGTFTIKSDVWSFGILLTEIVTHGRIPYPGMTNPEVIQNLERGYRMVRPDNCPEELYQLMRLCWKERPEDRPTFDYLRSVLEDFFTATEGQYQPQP", "experiment": "Lck human kinase assay (glass-fiber filter)", "format": "biochemical", "conditions": "test concentration of 10^−6M; read-out: C9 score (inhibition of Lck human)", "procedure,_shortened": "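Kinase activity measured as transfer of (^33P) from radiolabeled MgATP to substrate, captured on P30 glass-fiber filtermat, washed in 75 mM phosphoric acid and methanol, then scintillation counted.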"}, "[8]": {"target": "Yes (h) (Homo sapiens, UniProt P07947)", "sequence (P07947 whole entry)": "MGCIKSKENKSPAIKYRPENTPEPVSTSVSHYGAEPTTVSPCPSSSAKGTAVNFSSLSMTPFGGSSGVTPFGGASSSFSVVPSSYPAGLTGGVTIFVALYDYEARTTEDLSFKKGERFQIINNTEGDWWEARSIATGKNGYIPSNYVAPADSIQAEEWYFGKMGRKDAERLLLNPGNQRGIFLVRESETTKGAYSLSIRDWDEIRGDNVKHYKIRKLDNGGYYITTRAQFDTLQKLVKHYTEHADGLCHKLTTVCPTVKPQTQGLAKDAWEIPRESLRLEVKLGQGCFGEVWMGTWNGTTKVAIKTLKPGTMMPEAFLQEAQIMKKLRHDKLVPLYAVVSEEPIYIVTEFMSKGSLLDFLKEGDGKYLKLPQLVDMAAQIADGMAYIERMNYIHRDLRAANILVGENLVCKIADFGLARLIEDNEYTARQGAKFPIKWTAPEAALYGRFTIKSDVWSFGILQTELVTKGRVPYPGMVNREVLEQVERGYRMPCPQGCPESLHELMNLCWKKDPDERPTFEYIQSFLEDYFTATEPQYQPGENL", "experiment": "Yes human kinase assay (glass-fiber filter)", "format": "biochemical", "conditions": "test concentration of 10^−6M; read-out: C11 score (inhibition of Yes human)", "procedure,_shortened": "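Yes (h) (5-10 mU) with 0.1 mg/ml poly(Glu, Tyr) 4:1 in 8 mM MOPS pH 7.0, 0.2 mM EDTA, 10 mM MgAcetate and [γ-^33P-ATP], 40 minutes at room temperature. Stopped with phosphoric acid; substrate-bound ^33P counted on glass-fiber filter by scintillation.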"}}}
{"smiles": "N#Cc1cnc2nc1Nc1cccc(c1)C(=O)NCCOc1cccc(c1)N2", "note": "[Compound 3, 18-oxa-2,4,8,15,25-pentaazatetracyclo[17.3.1.1˜3,7˜.1˜9,13˜]pentacosa-1(23),3,5,7(25),9,11,13(24),19,21-nonaene-6-carbonitrile, 14-oxo-]", "values": [{"measurement": "ring closure, yield of all isomers", "setting": "[1]", "value": 15, "unit": "%"}, {"measurement": "inhibition at 1 µM", "setting": "[2]", "value": "10 to 30", "unit": "%"}, {"measurement": "inhibition at 1 µM", "setting": "[3]", "value": "10 to 30", "unit": "%"}, {"measurement": "inhibition at 1 µM", "setting": "[4]", "value": "10 to 30", "unit": "%"}, {"measurement": "inhibition at 1 µM", "setting": "[5]", "value": "30 to 60", "unit": "%"}, {"measurement": "inhibition at 1 µM", "setting": "[6]", "value": "30 to 60", "unit": "%"}, {"measurement": "inhibition at 1 µM", "setting": "[7]", "value": "10 to 30", "unit": "%"}, {"measurement": "inhibition at 1 µM", "setting": "[8]", "value": "10 to 30", "unit": "%"}, {"measurement": "melting point", "value": "> 260", "unit": "°C"}]}
